The source made the active and inactive calls. The calls are words filed in the database; no cut-off is given here.
Assays:
Type in all cases: cell-based
[1] = target: Matrix metalloproteinase-9 (Homo sapiens, UniProt P14780); assay: Inhibition of MMP9 in human U2OS cells at 5 umol/L by peptide microarray-based fluorescence assay; details: dose 5.0 µmol/L
[2] = target: T1, Interstitial collagenase (Homo sapiens) (UniProt P03956); assay: Inhibition of MMP1 in human U2OS cells at 5 umol/L by peptide microarray-based fluorescence assay; details: dose 5.0 µmol/L
T1 sequence (whole entry): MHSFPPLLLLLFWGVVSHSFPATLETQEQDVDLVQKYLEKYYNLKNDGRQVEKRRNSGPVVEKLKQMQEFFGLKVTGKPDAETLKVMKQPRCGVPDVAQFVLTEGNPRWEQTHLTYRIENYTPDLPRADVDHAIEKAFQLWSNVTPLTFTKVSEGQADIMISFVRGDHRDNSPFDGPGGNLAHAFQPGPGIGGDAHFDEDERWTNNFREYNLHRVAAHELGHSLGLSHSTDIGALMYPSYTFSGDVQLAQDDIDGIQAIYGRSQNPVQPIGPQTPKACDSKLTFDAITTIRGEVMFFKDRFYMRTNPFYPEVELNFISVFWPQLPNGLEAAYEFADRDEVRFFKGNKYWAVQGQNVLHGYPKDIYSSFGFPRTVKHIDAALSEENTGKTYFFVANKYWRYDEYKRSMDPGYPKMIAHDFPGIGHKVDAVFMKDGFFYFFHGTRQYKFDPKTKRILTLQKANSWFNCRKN

Collagenase 3 = Collagenase 3 (Homo sapiens, UniProt P45452); assay: Inhibition of MMP13 in human U2OS cells at 5 umol/L by peptide microarray-based fluorescence assay; details: dose 5.0 µmol/L
[3] = target: T2, Matrilysin (Homo sapiens) (UniProt P09237); assay: Inhibition of MMP7 in human U2OS cells at 5 umol/L by peptide microarray-based fluorescence assay; details: dose 5.0 µmol/L
T2 sequence (whole entry): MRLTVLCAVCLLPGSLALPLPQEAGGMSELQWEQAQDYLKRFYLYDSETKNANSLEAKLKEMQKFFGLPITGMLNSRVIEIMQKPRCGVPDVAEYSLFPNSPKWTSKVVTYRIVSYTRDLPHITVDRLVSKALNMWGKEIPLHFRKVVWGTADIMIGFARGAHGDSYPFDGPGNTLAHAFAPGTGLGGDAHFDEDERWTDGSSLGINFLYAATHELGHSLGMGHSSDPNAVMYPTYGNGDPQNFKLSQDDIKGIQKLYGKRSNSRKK

[4] = target: 72 kDa type IV collagenase (Homo sapiens, UniProt P08253); assay: Inhibition of MMP2 in human U2OS cells at 5 umol/L by peptide microarray-based fluorescence assay; details: dose 5.0 µmol/L
[5] = target: T1, Interstitial collagenase (Homo sapiens); assay: Inhibition of MMP1 in human U2OS cells at 1 umol/L by peptide microarray-based fluorescence assay; details: dose 1.0 µmol/L
Stromelysin-1 = Stromelysin-1 (Homo sapiens, UniProt P08254); assay: Inhibition of MMP3 in human U2OS cells at 5 umol/L by peptide microarray-based fluorescence assay; details: dose 5.0 µmol/L
Chain of Stromelysin-1 (P08254 100-477 limits assumed): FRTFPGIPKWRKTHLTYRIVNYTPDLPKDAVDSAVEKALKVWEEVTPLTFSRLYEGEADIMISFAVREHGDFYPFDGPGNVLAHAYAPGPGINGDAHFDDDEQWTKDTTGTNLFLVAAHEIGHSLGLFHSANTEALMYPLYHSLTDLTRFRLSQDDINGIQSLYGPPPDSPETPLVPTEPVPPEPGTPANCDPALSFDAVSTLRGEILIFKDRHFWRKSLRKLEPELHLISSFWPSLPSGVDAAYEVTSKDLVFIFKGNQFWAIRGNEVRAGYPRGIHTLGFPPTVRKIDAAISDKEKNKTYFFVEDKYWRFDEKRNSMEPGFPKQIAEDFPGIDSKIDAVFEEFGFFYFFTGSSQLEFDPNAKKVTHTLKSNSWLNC

Chain of Matrix metalloproteinase-9 (P14780 whole entry): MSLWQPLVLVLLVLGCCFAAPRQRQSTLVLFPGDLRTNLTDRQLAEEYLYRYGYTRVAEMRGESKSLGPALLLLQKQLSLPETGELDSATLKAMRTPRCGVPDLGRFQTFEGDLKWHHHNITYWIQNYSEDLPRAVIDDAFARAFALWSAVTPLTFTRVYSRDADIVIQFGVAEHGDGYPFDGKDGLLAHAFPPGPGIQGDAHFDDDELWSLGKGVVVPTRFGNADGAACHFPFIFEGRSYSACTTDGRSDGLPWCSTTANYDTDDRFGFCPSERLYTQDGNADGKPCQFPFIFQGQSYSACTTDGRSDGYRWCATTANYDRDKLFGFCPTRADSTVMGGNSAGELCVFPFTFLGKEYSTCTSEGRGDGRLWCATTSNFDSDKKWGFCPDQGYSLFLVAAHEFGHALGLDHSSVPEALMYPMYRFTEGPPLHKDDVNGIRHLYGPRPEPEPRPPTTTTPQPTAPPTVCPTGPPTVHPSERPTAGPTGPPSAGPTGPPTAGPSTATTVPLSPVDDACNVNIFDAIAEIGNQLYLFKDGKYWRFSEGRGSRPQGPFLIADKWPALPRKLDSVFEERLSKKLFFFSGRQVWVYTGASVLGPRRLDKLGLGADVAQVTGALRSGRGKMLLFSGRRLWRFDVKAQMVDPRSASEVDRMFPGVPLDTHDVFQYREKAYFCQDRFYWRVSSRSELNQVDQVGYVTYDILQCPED
Chain of 72 kDa type IV collagenase (P08253 110-660 limits assumed): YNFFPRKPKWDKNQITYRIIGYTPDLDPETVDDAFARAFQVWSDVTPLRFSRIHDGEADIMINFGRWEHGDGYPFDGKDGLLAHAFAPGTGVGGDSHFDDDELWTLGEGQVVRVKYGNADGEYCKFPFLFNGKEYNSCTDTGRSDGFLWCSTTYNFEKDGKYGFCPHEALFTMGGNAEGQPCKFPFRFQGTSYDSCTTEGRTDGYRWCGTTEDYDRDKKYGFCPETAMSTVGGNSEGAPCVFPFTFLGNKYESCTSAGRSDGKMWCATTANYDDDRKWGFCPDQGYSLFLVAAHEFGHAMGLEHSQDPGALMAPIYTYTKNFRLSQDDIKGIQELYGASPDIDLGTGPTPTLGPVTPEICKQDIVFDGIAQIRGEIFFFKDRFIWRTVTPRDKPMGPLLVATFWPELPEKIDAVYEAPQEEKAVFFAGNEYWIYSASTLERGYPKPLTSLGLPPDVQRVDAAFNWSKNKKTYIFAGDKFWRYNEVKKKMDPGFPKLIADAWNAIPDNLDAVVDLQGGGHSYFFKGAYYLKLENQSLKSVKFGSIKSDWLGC

Row | SMILES | inhibition [1] [%] | inhibition [2] [%] | inhibition (Collagenase 3) [%] | inhibition [3] [%] | inhibition [4] [%] | inhibition [5] | inhibition (Stromelysin-1) [%]
1 | COc1ccc(-c2coc3cc(O[C@@H]4O[C@H](CO)[C@@H](O)[C@H](O)[C@H]4O)ccc3c2=O)cc1 | > 50 |  |  |  |  |  | 
2 | O=C(O)[C@H]1O[C@@H](Oc2cc3oc(-c4ccc(O)cc4)cc(=O)c3c(O)c2O)[C@H](O)[C@@H](O)[C@@H]1O | > 50 | > 50 | > 50 | > 50 | > 50 |  | 
3 | C=CC(C)(C)c1cc(/C=C/C(=O)c2ccc(O)cc2)c(OC)cc1O |  | > 50 |  |  |  |  | 
4 | CNC(=O)[C@@H](NC(=O)[C@H](CC(C)C)[C@H](O)C(=O)NO)C(C)(C)C |  |  |  |  |  | Active | 
5 | COc1ccc(-c2cc(=O)c3c(OC)c(OC)c(OC)cc3o2)cc1OC |  | > 50 | > 50 | > 50 | > 50 |  | > 50
